{"source": "patent US5831055A", "about": "“DNA encoding a novel kidney ATP-dependent potassium channels” (Pharmacia & Upjohn Company, priority 1996, dated 1998)", "key": {"KIRK 2 channel": {"biological_target": "T1, KIRK 2 channel (Homo sapiens, UniProt P78508)", "T1 construct": "primers that flank the open-reading frame of KIRK-2 were used to PCR amplify this region of the genomic clone; expressed in transfected cells; host or cells: Xenopus laevis oocytes injected with polyadenylated KIRK 2 cRNA (from pSPORT/KIRK-2)", "T1 sequence (P78508 1-379)": "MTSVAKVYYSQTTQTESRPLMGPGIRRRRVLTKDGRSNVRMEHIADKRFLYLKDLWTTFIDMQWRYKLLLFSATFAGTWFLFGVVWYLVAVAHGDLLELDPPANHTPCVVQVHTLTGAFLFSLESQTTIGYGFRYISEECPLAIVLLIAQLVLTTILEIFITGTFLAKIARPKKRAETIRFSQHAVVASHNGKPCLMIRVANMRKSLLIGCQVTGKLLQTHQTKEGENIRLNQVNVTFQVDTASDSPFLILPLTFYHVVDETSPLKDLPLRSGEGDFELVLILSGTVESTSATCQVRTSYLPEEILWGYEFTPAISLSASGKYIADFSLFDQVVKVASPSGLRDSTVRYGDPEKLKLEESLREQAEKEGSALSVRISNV", "assay": "Two-microelectrode voltage-clamp of Xenopus oocytes injected with KIRK 2 cRNA", "assay_type": "cell-based", "conditions": "for inhibition of KIRK 2 current: Xenopus oocytes expressing KIRK 2, Ba^2+ applied at 0.03 μM to 10 mM (n=8), Cs^+ n=6, data not shown", "method": "Oocytes were collected under tricaine (3-aminobenzoic acid ethyl ester, 0.17%; Sigma, St. Louis, Mo.) and cold-induced anesthesia from adult African clawed frogs, Xenopus laevis (Nasco, Ft. Atkinson, Wis.), and defolliculated by blunt dissection in Ca^2+ free ND-96 following 40 minutes incubation in 2 mg/ml collagenase (Type II; Sigma, St. Louis, Mo.). ND-96 consisted of 96 mM NaCl, 2 mM KCl, 1 mM MgCl2, 0.3 mM CaCl2, 5 mM HEPES, pH 7.6.The following day, a glass injection pipette manually broken to ~15 μm tip diameter was used to inject oocytes with […] of polyadenylated cRNA dissolved in water at 15, 30 or 100 ng/μl resulting in injection of 0.6, 1.2, or 4 ng of cRNA. Prior to recordings, oocytes were maintained 2-7 days at 20° C. in ND-96 supplemented with gentamycin ([…]; Bio-Whittaker, Walkersville, Md.) and sodium-pyruvate (2.5 mM; Sigma).\nElectrophysiological recordings were conducted at room temperature. Oocyte resting membrane potential was measured in ND-96 using 30-80 M.OMEGA. glass microelectrodes filled with 3M KCl For two-microelectrode voltage-clamp recordings, the voltage-measuring pipette had resistances of 1.5 to 2.0 M.OMEGA., while the current-injection pipette had resistances of 0.7-0.9 M.OMEGA.; both pipettes were filled with 3M KCl. All voltage-clamp recordings were conducted in bath solutions containing 1 mM MgCl2, 0.3 mM CaCl2, and 5 mM HEPES. For experiments conducted in 50 mM K^+, the solution contained 50 mM KCl and 50 mM NaCl. For lower potassium concentrations, this solution was mixed with an identical solution in which choline was substituted for potassium. Pairs of solutions at pH 5.4 and 8.4, containing 50 mM KCl and either 50 mM potassium-acetate or 50 mM potassium-hydrogen phthalate (biphthalate; Sigma, St. Louis, Mo.) were mixed to vary pH.\nTwo-microelectrode, voltage-clamp recordings were conducted using the GeneClamp 500 (Axon Instruments, La Jolla, Calif.) interfaced with a 486 Computer running the PCLAMP 6.0 (Axon Instruments, La Jolla, Calif.) suite of programs. Currents were filtered at 2 kHz and sampled every 100 μs. Current amplitude was measured during the last 4 ms of a 400 ms test pulse. Data were analyzed and plotted using PCLAMP 6.0 and SIGMA PLOT 5.0 (Jandel Scientific, San Rafael, Calif.). Statistical significance was determined by the Student's T-test."}}}
{"compound": "[Ba+2]", "note": "[Ba^2+]", "values": [{"measurement": "fraction of the transmembrane electric field sensed by the binding site (Woodhull equation fit of Ki versus membrane potential)", "setting": "KIRK 2 channel; Ki values at holding potentials -120, -80 and -40 mV", "value": 46, "unit": "%"}, {"measurement": "inhibition of KIRK 2 current", "setting": "KIRK 2 channel", "value": "reversible, concentrationdependent inhibition"}, {"measurement": "Hill coefficient of logistic fit of concentration-dependence of KIRK 2 inhibition", "setting": "KIRK 2 channel; three holding potentials (-120, -80, -40 mV), n=8", "value": 2}]}
{"compound": "[Cs+]", "note": "[Cs^+]", "values": [{"measurement": "inhibition of KIRK 2 current", "setting": "KIRK 2 channel", "value": "reversible and voltage-dependent"}, {"measurement": "effectiveness of block of KIRK 2 compared with Ba^2+", "setting": "KIRK 2 channel; apparent only at the most negative potentials tested, n=6, data not shown", "value": "far less effective than block by Ba^2+"}]}
{"compound": "KIRK-3 (human kidney inward rectifier K channel 3)", "values": [{"measurement": "whole-cell current at a holding potential of -160 mV in Xenopus oocytes, two-microelectrode voltage clamp", "setting": "KIRK 1 (ROMK channel)", "value": 54, "unit": "%"}]}
